Experimental data as given in publication PMC6897958, “Structural basis of ligand selectivity and disease mutations in cysteinyl leukotriene receptors” (Nature Communications, 2019).

Legend:
Format in all cases: cell-based
CysLT2R I126^3.40V = molecular target: T1, CysLT2R I126^3.40V (Homo sapiens, UniProt Q9NS75, I126V); assay: IP1 production assay, HEK293 transfected with CysLT2R mutant
T1 construct: expressed in transfected cells; host or cells: HEK293 (ATCC CRL-1573)
Source text: (§1) For CysLT2R functional assays, the initial CysLT2R wild-type gene with an N-terminal 3 × HA tag cloned into pcDNA3.1+ (Invitrogen) at EcoRI(5′) and XhoI(3′) was purchased from cDNA.org. All further gene modifications (point mutations, truncations, or partner protein fusion) were introduced by overlapping PCR. Sequences of all primers used in this work are listed in Supplementary Table 4.
(§2) The Cisbio IP-One kit was used according to the manufacturer’s instructions. HEK293 cells (ATCC CRL-1573) were seeded onto poly-L-Lysine-coated 384-well plates at 20,000 cells per well and transfected with 40 ng of DNA coding for the wild-type CysLT2R or for the CysLT2R mutants using the X-treme-Gene HP (Roche) agent. At 48 h post transfection, the media was removed and the cells were washed with fresh Hank’s Balanced Salt Solution. […] After equilibration for 30 min at 37 °C, the cells were lysed with IP1-D2 and Ab-Crypt reagents in lysis buffer and then incubated for 1 h at RT. […] Data were plotted using the three parameters EC50/IC50 fit in GraphPad Prism 7 (San Diego, CA) and represent the mean ± s.d. of at least two independent experiments performed in quadruplicate.

CysLT2R R267^6.55K = molecular target: T2, CysLT2R R267^6.55K (Homo sapiens, UniProt Q9NS75, R267K); assay: as above
T2 construct: expressed in transfected cells; host or cells: HEK293 (ATCC CRL-1573)
T2 sequence (Q9NS75 whole entry R267K): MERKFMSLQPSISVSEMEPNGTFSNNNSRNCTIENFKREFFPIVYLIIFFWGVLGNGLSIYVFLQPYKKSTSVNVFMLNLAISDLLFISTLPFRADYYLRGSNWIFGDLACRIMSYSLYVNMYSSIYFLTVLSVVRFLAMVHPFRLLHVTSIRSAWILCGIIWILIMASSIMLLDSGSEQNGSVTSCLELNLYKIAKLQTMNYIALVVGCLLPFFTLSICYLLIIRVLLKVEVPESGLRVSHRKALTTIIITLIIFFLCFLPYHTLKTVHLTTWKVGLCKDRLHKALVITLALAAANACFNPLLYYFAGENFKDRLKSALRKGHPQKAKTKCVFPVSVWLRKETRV
Source text: as §1, §2

CysLT2R V135^3.49D = molecular target: T3, CysLT2R V135^3.49D (Homo sapiens, UniProt Q9NS75, V135D); assay: as above
T3 construct: expressed in transfected cells; host or cells: HEK293 (ATCC CRL-1573)
T3 sequence (Q9NS75 whole entry V135D): as the sequence (Q9NS75 whole entry R267K) above, with V135D, K267R counted along it
Source text: as §1, §2

CysLT2R K194 ^ECL2R = molecular target: T4, CysLT2R K194 ^ECL2R (Homo sapiens, UniProt Q9NS75, K194R); assay: as above
T4 construct: expressed in transfected cells; host or cells: HEK293 (ATCC CRL-1573)
T4 sequence (Q9NS75 whole entry K194R): as the sequence (Q9NS75 whole entry R267K) above, with K194R, K267R counted along it
Source text: as §1, §2

CysLT2R M201^5.38V = molecular target: T5, CysLT2R M201^5.38V (Homo sapiens, UniProt Q9NS75, M201V); assay: as above
T5 construct: expressed in transfected cells; host or cells: HEK293 (ATCC CRL-1573)
T5 sequence (Q9NS75 whole entry M201V): as the sequence (Q9NS75 whole entry R267K) above, with M201V, K267R counted along it
Source text: as §1, §2

CysLT2R K37^1.31R = molecular target: T6, CysLT2R K37^1.31R (Homo sapiens, UniProt Q9NS75, K37R); assay: as above
T6 construct: expressed in transfected cells; host or cells: HEK293 (ATCC CRL-1573)
T6 sequence (Q9NS75 whole entry K37R): as the sequence (Q9NS75 whole entry R267K) above, with K37R, K267R counted along it
Source text: as §1, §2

CysLT2R E310^8.48A = molecular target: T7, CysLT2R E310^8.48A (Homo sapiens, UniProt Q9NS75, E310A); assay: as above
T7 construct: expressed in transfected cells; host or cells: HEK293 (ATCC CRL-1573)
T7 sequence (Q9NS75 whole entry E310A): as the sequence (Q9NS75 whole entry R267K) above, with K267R, E310A counted along it
Source text: as §1, §2

CysLT2R N202^5.39H = molecular target: T8, CysLT2R N202^5.39H (Homo sapiens, UniProt Q9NS75, N202H); assay: as above
T8 construct: expressed in transfected cells; host or cells: HEK293 (ATCC CRL-1573)
T8 sequence (Q9NS75 whole entry N202H): as the sequence (Q9NS75 whole entry R267K) above, with N202H, K267R counted along it
Source text: as §1, §2

CysLT2R Y119^3.33F = molecular target: T9, CysLT2R Y119^3.33F (Homo sapiens, UniProt Q9NS75, Y119F); assay: as above
T9 construct: expressed in transfected cells; host or cells: HEK293 (ATCC CRL-1573)
T9 sequence (Q9NS75 whole entry Y119F): as the sequence (Q9NS75 whole entry R267K) above, with Y119F, K267R counted along it
Source text: as §1, §2

CysLT2R S169^4.56A = molecular target: T10, CysLT2R S169^4.56A (Homo sapiens, UniProt Q9NS75, S169A); assay: as above
T10 construct: expressed in transfected cells; host or cells: HEK293 (ATCC CRL-1573)
T10 sequence (Q9NS75 whole entry S169A): as the sequence (Q9NS75 whole entry R267K) above, with S169A, K267R counted along it
Source text: as §1, §2

CysLT2R W51^1.45V = molecular target: T11, CysLT2R W51^1.45V (Homo sapiens, UniProt Q9NS75, W51V); assay: as above
T11 construct: expressed in transfected cells; host or cells: HEK293 (ATCC CRL-1573)
T11 sequence (Q9NS75 whole entry W51V): as the sequence (Q9NS75 whole entry R267K) above, with W51V, K267R counted along it
Source text: as §1, §2

CysLT2R E310^8.48G = molecular target: T12, CysLT2R E310^8.48G (Homo sapiens, UniProt Q9NS75, E310G); assay: as above
T12 construct: expressed in transfected cells; host or cells: HEK293 (ATCC CRL-1573)
T12 sequence (Q9NS75 whole entry E310G): as the sequence (Q9NS75 whole entry R267K) above, with K267R, E310G counted along it
Source text: as §1, §2

CysLT2R F260^6.48W = molecular target: T13, CysLT2R F260^6.48W (Homo sapiens, UniProt Q9NS75, F260W); assay: as above
T13 construct: expressed in transfected cells; host or cells: HEK293 (ATCC CRL-1573)
T13 sequence (Q9NS75 whole entry F260W): as the sequence (Q9NS75 whole entry R267K) above, with F260W, K267R counted along it
Source text: as §1, §2

CysLT2R L129^3.43Q = molecular target: T14, CysLT2R L129^3.43Q (Homo sapiens, UniProt Q9NS75, L129Q); assay: as above; conditions: for remaining activity at 1 µM: HEK293, Log[Antagonist] -6 M, L129Q constitutive activity, source data Supp Figure 6D; for remaining activity at 0.01 µM: HEK293, Log[Antagonist] -8 M; for remaining activity at 0.001 µM: HEK293, Log[Antagonist] -9 M; for reversal of constitutive activity (IP1 production) of L129^3.43Q: antagonist 1 µM
T14 construct: expressed in transfected cells; host or cells: HEK293 (ATCC CRL-1573)
T14 sequence (Q9NS75 1-346 L129Q): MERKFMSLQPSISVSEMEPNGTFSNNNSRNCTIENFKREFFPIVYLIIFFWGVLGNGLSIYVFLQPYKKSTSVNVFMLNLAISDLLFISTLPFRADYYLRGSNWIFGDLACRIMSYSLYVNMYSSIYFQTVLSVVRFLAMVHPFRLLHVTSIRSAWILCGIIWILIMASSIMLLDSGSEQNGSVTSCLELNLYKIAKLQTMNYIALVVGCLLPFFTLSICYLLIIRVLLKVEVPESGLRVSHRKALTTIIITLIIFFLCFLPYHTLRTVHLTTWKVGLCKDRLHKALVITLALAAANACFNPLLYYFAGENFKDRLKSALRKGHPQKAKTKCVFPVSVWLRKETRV
Source text: as §1, §2

CysLT2R N301^7.49D = molecular target: T15, CysLT2R N301^7.49D (Homo sapiens, UniProt Q9NS75, N301D); assay: as above
T15 construct: expressed in transfected cells; host or cells: HEK293 (ATCC CRL-1573)
T15 sequence (Q9NS75 whole entry N301D): as the sequence (Q9NS75 whole entry R267K) above, with K267R, N301D counted along it
Source text: as §1, §2

CysLT2R F137^3.51Y = molecular target: T16, CysLT2R F137^3.51Y (Homo sapiens, UniProt Q9NS75, F137Y); assay: as above
T16 construct: expressed in transfected cells; host or cells: HEK293 (ATCC CRL-1573)
T16 sequence (Q9NS75 whole entry F137Y): as the sequence (Q9NS75 whole entry R267K) above, with F137Y, K267R counted along it
Source text: as §1, §2

CysLT2R Y127^3.41W = molecular target: T17, CysLT2R Y127^3.41W (Homo sapiens, UniProt Q9NS75, Y127W); assay: as above
T17 construct: expressed in transfected cells; host or cells: HEK293 (ATCC CRL-1573)
T17 sequence (Q9NS75 whole entry Y127W): as the sequence (Q9NS75 whole entry R267K) above, with Y127W, K267R counted along it
Source text: as §1, §2

CysLT2R H284^7.32Q = molecular target: T18, CysLT2R H284^7.32Q (Homo sapiens, UniProt Q9NS75, H284Q); assay: as above
T18 construct: expressed in transfected cells; host or cells: HEK293 (ATCC CRL-1573)
T18 sequence (Q9NS75 whole entry H284Q): as the sequence (Q9NS75 whole entry R267K) above, with K267R, H284Q counted along it
Source text: as §1, §2

CysLT2R K194 ^ECL2N = molecular target: T19, CysLT2R K194 ^ECL2N (Homo sapiens, UniProt Q9NS75, K194N); assay: as above
T19 construct: expressed in transfected cells; host or cells: HEK293 (ATCC CRL-1573)
T19 sequence (Q9NS75 whole entry K194N): as the sequence (Q9NS75 whole entry R267K) above, with K194N, K267R counted along it
Source text: as §1, §2

CysLT2R wild type = molecular target: T20, CysLT2R wild type (Homo sapiens, UniProt Q9NS75); assay: IP1 production assay (Cisbio IP-One), HEK293 cells transfected with wild-type CysLT2R
T20 construct: host or cells: HEK293 (ATCC CRL-1573)
T20 sequence (Q9NS75 whole entry): as the sequence (Q9NS75 whole entry R267K) above, with K267R counted along it
Description: as §1
as §2, with “HEK293 cells (ATCC CRL-1573) were seeded onto poly-L-Lysine-coated 384-well plates at 20,000 cells per well and transfected with 40 ng of DNA coding for the wild-type CysLT2R or for the CysLT2R mutants using the X-treme-Gene HP (Roche) agent.” left out

[1] = read-out: IP1 production (normalized), single replicate values
[2] = L129Q, Supp Figure 6D, read-out: IP1 production (normalized), single replicate values

T1 sequence (Q9NS75 whole entry I126V): as the sequence (Q9NS75 whole entry R267K) above, with I126V, K267R counted along it

SMILES | IC50 (CysLT2R I126^3.40V) [nM] | IC50 (CysLT2R R267^6.55K) [nM] | IC50 (CysLT2R V135^3.49D) [nM] | IC50 (CysLT2R K194 ^ECL2R) [nM] | IC50 (CysLT2R M201^5.38V) [nM] | IC50 (CysLT2R K37^1.31R) [nM] | IC50 (CysLT2R E310^8.48A) [nM] | IC50 (CysLT2R N202^5.39H) [nM] | IC50 (CysLT2R Y119^3.33F) [nM] | IC50 (CysLT2R S169^4.56A) [nM] | IC50 (CysLT2R W51^1.45V) [nM] | IC50 (CysLT2R E310^8.48G) [nM] | IC50 (CysLT2R F260^6.48W) [nM] | remaining activity at 1 µM (CysLT2R L129^3.43Q; [1]) [%] | remaining activity at 0.01 µM (CysLT2R L129^3.43Q; [2]) [%] | remaining activity at 0.001 µM (CysLT2R L129^3.43Q; [2]) [%] | reversal of constitutive activity (IP1 production) of L129^3.43Q (CysLT2R L129^3.43Q) | IC50 (CysLT2R N301^7.49D) [nM] | IC50 (CysLT2R F137^3.51Y) [nM] | IC50 (CysLT2R Y127^3.41W) [nM] | other results
O=C(O)CCCN1CC(C(=O)O)Oc2c(NC(=O)c3ccc(OCCCCOc4cccc(F)c4F)cc3F)cccc21 (centres unmarked) [cpd 11c] | 14 ± 5 | 100 ± 30 | 40 ± 30 | 40 ± 20 | 60 ± 20 | 280 ± 100 | 18 ± 5 | 60 ± 30 | 260 ± 100 | 16 ± 10 | 160 ± 30 | 7 ± 6 | 330 ± 100 | 80.7 | 83.3 | 87.9 | not reversed | 110 ± 50 | 70 ± 20 | 44 ± 10 | remaining activity at 0.1 µM (CysLT2R L129^3.43Q; HEK293, Log[Antagonist] -7 M, L129Q, Supp Figure 6D, read-out: IP1 production (normalized), single replicate values): 85.9%; remaining activity at 0.0001 µM (CysLT2R L129^3.43Q; HEK293, Log[Antagonist] -10 M, L129Q, Supp Figure 6D, read-out: IP1 production (normalized), single replicate values): 72.7%; remaining activity at 10 pM (CysLT2R L129^3.43Q; HEK293, Log[Antagonist] -11 M, L129Q, Supp Figure 6D, read-out: IP1 production (normalized), single replicate values): 64.1%; remaining activity at 1 pM (CysLT2R L129^3.43Q; HEK293, Log[Antagonist] -12 M, L129Q, Supp Figure 6D, read-out: IP1 production (normalized), single replicate values): 68%; IC50 (CysLT2R H284^7.32Q): 270 ± 200 nM; IC50 (CysLT2R K194 ^ECL2N): 32 ± 10 nM; IC50 (CysLT2R wild type): 70 ± 20 nM
O=C(O)CCCN1C[C@@H](C(=O)O)Oc2c(NC(=O)c3ccc(OCCCCc4cc(F)ccc4Cl)cc3)cccc21 [cpd 11a] | 20 ± 10 | 22 ± 9 | 3 ± 3 | 60 ± 30 | 30 ± 10 | 80 ± 30 | 8 ± 3 | 290 ± 100 | 100 ± 40 | 10 ± 4 | 47 ± 10 | 2 ± 1 | 40 ± 20 | 76.2 | 78.3 | 74.4 | not reversed | 170 ± 70 | 15 ± 5 | 500 ± 400 | IC50 (CysLT2R H284^7.32Q): 230 ± 90 nM; IC50 (CysLT2R K194 ^ECL2N): 8 ± 4 nM; IC50 (CysLT2R wild type): 14 ± 6 nM
